7 molecules from US10357493B2, “Metalloenzyme inhibitor compounds” (Selenity Therapeutics (Bermuda), Ltd., priority 2017, dated 2019) can be followed below.

What all share (type): biochemical
One test addresses HDAC1 (Homo sapiens (Human), UniProt Q13547). As to the kind of experiment: HDAC1 enzymatic assay. An outline of the steps: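 Compound inhibition of human HDAC1 (0.5 ng enzyme, 10 uM substrate) was assessed by fluorescence after developer treatment, excitation 360 nm and emission 460 nm. Percent activity was normalized to no-compound (100%) and no-enzyme (0%) controls, plotted against concentration, and fitted to a sigmoidal dose-response curve in Graphpad Prism to obtain IC50 at half-maximal activity.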

The next test concerns the target HDAC2 (Homo sapiens (Human), UniProt Q92769). Briefly: HDAC2 enzymatic assay. To be noted: selectivity profile; read-out: HDAC Enzyme IC50, HDAC 2. How it is done: (§1) All enzymatic reactions were conducted in duplicate at room temperature for 17 hours in a 50 μl mixture containing HDAC assay buffer (50 mM Tris-HCl, pH 7.4, 137 mM NaCl, 2.7 mM KCl, 0.05% Tween 20, 5 μg BSA), an HDAC substrate, an HDAC enzyme, and a test compound. Compound dilution was prepared ten-fold higher than the final concentration of the compounds with 10% DMSO in HDAC assay buffer and 5 μl of the dilution was added to a 50 μl reaction so that the final concentration of DMSO is 1% in all of reactions. After enzymatic reactions, 50 μl of HDAC Developer was added to each well and the plate was incubated at room temperature for an additional 20 minutes. Fluorescence intensity was measured at an excitation of 360 nm and an emission of 460 nm using a Tecan Infinite M1000 or Biotek Synergy microplate reader.
(§2) The fluorescent intensity data were analyzed using the computer software, Graphpad Prism. In the absence of the compound, the fluorescent intensity (Ft) in each data set was defined as 100% activity. In the absence of HDAC, the fluorescent intensity (Fb) in each data set was defined as 0% activity. The percent activity in the presence of each compound was calculated according to the following equation: % activity=(F−Fb)/(Ft−Fb), where F=the fluorescent intensity in the presence of the compound.
(§3) The values of % activity versus a series of compound concentrations were then plotted using non-linear regression analysis of Sigmoidal dose-response curve generated with the equation Y=B+(T−B)/1+10((Log EC50−X)×Hill Slope), where Y=percent activity, B=minimum percent activity, T=maximum percent activity, X=logarithm of compound and Hill Slope=slope factor or Hill coefficient. The IC50 value was determined by the concentration causing a half-maximal percent activity.
(§4) HDAC1 enzymatic assays contained 0.5 ng HDAC1 and 10 uM of HDAC substrate. HDAC2 enzymatic assays contained 0.5 ng HDAC2 and 10 uM of HDAC substrate. HDAC3 enzymatic assays contained 0.4 ng HDAC3/NCOR2 and 10 uM of HDAC substrate. HDAC4 enzymatic assays contained 0.02 ng HDAC4 and 2 uM of HDAC substrate. HDAC5 enzymatic assays contained 0.5 ng HDAC5 and 2 uM of HDAC substrate. HDAC6 enzymatic assays contained 2 ng HDAC6 and 10 uM of HDAC substrate. HDAC7 enzymatic assays contained 0.05 ng HDAC7 and 2 uM of HDAC substrate. HDAC8 enzymatic assays contained 5 ng HDAC8 and 2 uM of HDAC substrate. HDAC9 enzymatic assays contained 1 ng HDAC9 and 2 uM of HDAC substrate. HDAC10 enzymatic assays contained 75 ng HDAC10 and 10 uM of HDAC substrate. HDAC11 enzymatic assays contained 5 ng HDAC11 and 2 uM of HDAC substrate.

The next test concerns the target HDAC3/NCOR2 (Homo sapiens (Human), UniProt O15379). Briefly: HDAC3 enzymatic assay. To be noted: selectivity profile; read-out: HDAC Enzyme IC50, HDAC 3. Here is the method:
as §1, §2, §3, §4

The next test concerns the target HDAC4 (Homo sapiens (Human), UniProt P56524). As to the kind of experiment: HDAC4 enzymatic assay. The settings on record: selectivity profile; read-out: HDAC Enzyme IC50, HDAC 4. How it is done: as §1, §2, §3, §4
A further test concerns the target HDAC5 (Homo sapiens (Human), UniProt Q9UQL6). Briefly: HDAC5 enzymatic assay. To be noted: selectivity profile; read-out: HDAC Enzyme IC50, HDAC 5. How it is done: as §1, §2, §3, §4
The next test addresses HDAC6 (Homo sapiens (Human), UniProt Q9UBN7). As to the kind of experiment: HDAC6 enzymatic assay. In a few lines: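 Following a 17 hour room-temperature incubation of 2 ng HDAC6 with 10 uM substrate and compound, 50 μl developer was added for another 20 minutes, and fluorescence (excitation 360 nm, emission 460 nm) was recorded. Activity was normalized to no-compound (100%) and no-enzyme (0%) wells, and IC50 came from sigmoidal dose-response fitting in Graphpad Prism.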

The target of another test is HDAC7 (Homo sapiens (Human), UniProt Q8WUI4). As to the kind of experiment: HDAC7 enzymatic assay. The settings on record: selectivity profile; read-out: HDAC Enzyme IC50, HDAC 7. How it is done: as §1, §2, §3, §4
Another test has as its target HDAC8 (Homo sapiens (Human), UniProt Q9BY41). As to the kind of experiment: HDAC8 enzymatic assay. The settings on record: selectivity profile; read-out: HDAC Enzyme IC50, HDAC 8. Here is the method:
as §1, §2, §3, §4

A further test addresses HDAC9 (Homo sapiens (Human), UniProt Q9UKV0). As to the kind of experiment: HDAC9 enzymatic assay. The settings on record: selectivity profile; read-out: HDAC Enzyme IC50, HDAC 9. How it is done:
as §1, §2, §3, §4

A further test addresses HDAC10 (Homo sapiens (Human), UniProt Q969S8). As to the kind of experiment: HDAC10 enzymatic assay. The settings on record: selectivity profile; read-out: HDAC Enzyme IC50, HDAC 10. Here is the method: as §1, §2, §3, §4
Another test deals with HDAC11 (Homo sapiens (Human), UniProt Q96DB2). Briefly: HDAC11 enzymatic assay. To be noted: selectivity profile; read-out: HDAC Enzyme IC50, HDAC 11. Here is the method:
as §1, §2, §3, §4

[1] abbreviates: selectivity profile, read-out: HDAC Enzyme IC50, HDAC 1.
Where [2] appears, read: selectivity profile, read-out: HDAC Enzyme IC50, HDAC 6.

Where two headings read alike, the source gives them in different places.

HDAC6, sequence (Q9UBN7 whole entry): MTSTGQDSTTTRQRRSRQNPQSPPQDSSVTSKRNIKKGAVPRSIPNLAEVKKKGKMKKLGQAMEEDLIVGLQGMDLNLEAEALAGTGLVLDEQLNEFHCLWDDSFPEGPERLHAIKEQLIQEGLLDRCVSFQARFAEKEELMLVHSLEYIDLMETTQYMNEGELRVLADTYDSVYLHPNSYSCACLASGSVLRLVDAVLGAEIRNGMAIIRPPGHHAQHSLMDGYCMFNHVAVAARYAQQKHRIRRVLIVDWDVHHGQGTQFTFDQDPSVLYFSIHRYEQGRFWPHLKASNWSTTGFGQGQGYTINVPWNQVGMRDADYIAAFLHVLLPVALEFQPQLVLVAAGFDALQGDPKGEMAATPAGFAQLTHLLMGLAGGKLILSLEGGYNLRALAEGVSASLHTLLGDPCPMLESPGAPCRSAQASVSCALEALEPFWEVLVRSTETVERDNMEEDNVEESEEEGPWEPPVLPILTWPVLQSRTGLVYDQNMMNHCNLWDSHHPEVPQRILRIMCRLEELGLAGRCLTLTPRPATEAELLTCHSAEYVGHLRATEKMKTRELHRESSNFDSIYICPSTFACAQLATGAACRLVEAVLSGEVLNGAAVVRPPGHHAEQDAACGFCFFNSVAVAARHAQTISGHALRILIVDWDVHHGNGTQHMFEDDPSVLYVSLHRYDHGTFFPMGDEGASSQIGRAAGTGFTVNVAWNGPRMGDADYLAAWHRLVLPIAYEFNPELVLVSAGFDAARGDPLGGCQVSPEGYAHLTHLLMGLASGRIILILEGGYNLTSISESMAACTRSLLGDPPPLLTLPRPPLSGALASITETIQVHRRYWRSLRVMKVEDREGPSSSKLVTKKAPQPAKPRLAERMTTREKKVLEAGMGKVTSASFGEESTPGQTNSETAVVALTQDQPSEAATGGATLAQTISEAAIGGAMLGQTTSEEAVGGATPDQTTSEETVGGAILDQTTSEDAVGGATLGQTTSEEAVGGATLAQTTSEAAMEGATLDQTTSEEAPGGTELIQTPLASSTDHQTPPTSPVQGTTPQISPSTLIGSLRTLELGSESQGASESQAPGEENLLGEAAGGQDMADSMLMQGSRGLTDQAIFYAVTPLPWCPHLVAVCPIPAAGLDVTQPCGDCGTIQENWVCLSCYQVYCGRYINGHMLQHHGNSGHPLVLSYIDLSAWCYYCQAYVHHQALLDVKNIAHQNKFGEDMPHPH
HDAC11, sequence (Q96DB2 whole entry, species assumed): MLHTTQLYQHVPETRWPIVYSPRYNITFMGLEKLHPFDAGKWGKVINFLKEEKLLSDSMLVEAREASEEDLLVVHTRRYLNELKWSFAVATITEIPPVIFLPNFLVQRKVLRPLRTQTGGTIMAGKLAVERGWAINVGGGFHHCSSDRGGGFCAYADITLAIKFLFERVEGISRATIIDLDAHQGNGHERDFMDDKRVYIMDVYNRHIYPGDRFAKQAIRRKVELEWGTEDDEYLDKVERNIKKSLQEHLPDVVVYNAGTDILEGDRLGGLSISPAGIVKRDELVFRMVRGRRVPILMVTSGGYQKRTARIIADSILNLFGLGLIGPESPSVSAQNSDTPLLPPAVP
HDAC4, sequence (P56524 whole entry, species assumed): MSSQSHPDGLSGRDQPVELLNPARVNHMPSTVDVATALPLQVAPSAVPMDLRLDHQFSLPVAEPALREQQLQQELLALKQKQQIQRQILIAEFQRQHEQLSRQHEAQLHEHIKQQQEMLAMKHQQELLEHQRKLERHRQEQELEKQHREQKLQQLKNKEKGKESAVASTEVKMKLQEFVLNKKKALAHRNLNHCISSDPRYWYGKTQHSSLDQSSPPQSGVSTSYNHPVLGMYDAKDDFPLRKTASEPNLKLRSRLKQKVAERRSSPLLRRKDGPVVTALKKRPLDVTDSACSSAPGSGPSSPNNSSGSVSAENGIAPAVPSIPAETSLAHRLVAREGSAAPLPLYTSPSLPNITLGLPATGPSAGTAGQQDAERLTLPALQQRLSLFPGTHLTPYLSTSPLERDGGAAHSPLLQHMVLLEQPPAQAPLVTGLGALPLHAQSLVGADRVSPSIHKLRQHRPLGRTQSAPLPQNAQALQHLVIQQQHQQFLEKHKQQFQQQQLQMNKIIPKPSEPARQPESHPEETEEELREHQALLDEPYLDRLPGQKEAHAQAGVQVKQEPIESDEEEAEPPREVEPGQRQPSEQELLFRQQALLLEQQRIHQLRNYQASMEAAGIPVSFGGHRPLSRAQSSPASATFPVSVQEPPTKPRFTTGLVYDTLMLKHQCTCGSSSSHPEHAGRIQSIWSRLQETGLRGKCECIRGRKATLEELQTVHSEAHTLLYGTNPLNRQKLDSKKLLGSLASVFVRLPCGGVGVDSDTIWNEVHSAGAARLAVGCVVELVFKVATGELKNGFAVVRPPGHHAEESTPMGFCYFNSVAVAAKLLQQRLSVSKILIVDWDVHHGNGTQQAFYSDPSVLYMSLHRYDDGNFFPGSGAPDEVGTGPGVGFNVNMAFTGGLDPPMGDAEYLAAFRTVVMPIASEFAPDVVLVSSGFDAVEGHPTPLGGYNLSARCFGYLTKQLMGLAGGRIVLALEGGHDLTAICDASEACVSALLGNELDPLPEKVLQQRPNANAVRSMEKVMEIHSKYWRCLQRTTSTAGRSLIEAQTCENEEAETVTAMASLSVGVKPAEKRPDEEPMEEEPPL
HDAC2, sequence (Q92769 whole entry, species assumed): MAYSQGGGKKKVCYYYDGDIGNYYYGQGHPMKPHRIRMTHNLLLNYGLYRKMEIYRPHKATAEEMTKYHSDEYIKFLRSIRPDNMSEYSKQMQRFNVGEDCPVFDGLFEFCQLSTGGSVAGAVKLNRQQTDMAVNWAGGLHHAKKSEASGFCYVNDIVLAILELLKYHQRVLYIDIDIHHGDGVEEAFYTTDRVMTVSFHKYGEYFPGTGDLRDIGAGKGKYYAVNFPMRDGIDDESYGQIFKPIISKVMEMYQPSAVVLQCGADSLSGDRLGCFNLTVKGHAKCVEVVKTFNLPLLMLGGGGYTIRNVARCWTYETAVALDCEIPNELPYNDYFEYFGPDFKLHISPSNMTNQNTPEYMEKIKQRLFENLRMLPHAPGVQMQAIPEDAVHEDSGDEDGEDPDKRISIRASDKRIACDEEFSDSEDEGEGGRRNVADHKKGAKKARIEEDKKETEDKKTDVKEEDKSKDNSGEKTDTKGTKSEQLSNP
HDAC8, sequence (Q9BY41 whole entry, species assumed): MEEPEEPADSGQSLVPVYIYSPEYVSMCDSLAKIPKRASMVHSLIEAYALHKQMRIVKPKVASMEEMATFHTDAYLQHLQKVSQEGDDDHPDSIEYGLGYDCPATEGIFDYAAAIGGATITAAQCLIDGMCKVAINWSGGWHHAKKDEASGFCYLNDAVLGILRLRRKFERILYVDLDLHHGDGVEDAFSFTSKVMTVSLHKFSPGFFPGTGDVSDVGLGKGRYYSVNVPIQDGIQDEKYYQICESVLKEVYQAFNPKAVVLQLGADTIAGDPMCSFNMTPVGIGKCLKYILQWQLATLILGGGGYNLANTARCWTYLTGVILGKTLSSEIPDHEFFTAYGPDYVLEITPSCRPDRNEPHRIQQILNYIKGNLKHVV
HDAC5, sequence (Q9UQL6 whole entry, species assumed): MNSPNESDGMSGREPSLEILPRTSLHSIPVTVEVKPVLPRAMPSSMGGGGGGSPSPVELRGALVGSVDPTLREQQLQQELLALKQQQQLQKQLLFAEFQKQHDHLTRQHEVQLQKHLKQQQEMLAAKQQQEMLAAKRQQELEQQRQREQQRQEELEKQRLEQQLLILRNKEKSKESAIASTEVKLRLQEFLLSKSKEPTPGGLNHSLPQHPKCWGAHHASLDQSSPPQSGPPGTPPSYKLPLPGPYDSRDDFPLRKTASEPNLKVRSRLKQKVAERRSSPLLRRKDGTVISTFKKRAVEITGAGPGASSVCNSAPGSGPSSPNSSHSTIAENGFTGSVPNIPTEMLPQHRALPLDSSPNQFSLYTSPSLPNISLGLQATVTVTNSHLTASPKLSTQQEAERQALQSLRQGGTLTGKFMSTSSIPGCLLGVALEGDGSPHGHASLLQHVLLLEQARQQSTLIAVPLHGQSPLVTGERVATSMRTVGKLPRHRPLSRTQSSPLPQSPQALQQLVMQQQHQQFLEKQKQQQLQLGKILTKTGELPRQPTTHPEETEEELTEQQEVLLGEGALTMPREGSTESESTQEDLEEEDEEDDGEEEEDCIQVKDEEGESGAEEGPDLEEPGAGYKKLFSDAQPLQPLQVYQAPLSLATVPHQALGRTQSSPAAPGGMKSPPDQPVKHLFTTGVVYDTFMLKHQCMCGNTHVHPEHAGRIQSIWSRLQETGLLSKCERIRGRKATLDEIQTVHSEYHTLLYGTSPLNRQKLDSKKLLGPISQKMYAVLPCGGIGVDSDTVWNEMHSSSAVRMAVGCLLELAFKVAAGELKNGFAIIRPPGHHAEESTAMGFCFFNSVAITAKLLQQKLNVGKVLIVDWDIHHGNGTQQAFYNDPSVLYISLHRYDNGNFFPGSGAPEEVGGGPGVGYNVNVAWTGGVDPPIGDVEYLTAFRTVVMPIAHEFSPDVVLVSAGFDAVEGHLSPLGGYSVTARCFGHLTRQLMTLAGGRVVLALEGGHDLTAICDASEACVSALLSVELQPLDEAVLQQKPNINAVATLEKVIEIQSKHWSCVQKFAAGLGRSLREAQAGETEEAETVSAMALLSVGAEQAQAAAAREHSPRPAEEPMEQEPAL

For the molecule `FC(F)c1nnc(-c2cnc(NC3(c4ccccc4)CC3)nc2)o1` [Example 4, 5-(5-(difluoromethyl)-1,3,4-oxadiazol-2-yl)-N-(1-phenylcyclopropyl)pyrimidin-2-amine], the IC50 on HDAC1 (read-out: Human HDAC1 IC50), on HDAC1 (setting [1]), on HDAC2, on HDAC3/NCOR2, at HDAC4 and on HDAC5 was over 30 µM each time. Also, the IC50 at HDAC6 (read-out: Human HDAC6 IC50) is 0.023 µM; at HDAC6 (setting [2]), 0.023 µM; on HDAC7, over 30 µM; at HDAC8, over 30 µM; on HDAC9, over 30 µM; at HDAC10, over 30 µM. Also, the IC50 on HDAC11 is over 30 µM.

In the case of `Fc1ccc(C2(Nc3ncc(-c4nnc(C(F)F)o4)cn3)CC2)cc1` [Example 5, 5-(5-(difluoromethyl)-1,3,4-oxadiazol-2-yl)-N-(1-(4-fluorophenyl)cyclopropyl)pyrimidin-2-amine], the IC50 at HDAC1 (read-out: Human HDAC1 IC50) is over 100 µM; at HDAC1 (setting [1]), over 100 µM; on HDAC2 it was over 30 µM; at HDAC3/NCOR2 it was over 30 µM; at HDAC4 it was over 30 µM; on HDAC5 it was over 30 µM. Further, the IC50 is 0.034 µM on HDAC6 (read-out: Human HDAC6 IC50); 0.034 µM at HDAC6 (setting [2]); over 30 µM on HDAC7; over 30 µM on HDAC8; over 30 µM on HDAC9; over 30 µM at HDAC10. On HDAC11, the IC50 is over 30 µM.

`CC(C)(Nc1ncc(-c2nnc(C(F)F)o2)cn1)c1ccc(F)cc1` [Example 9, 5-(5-(difluoromethyl)-1,3,4-oxadiazol-2-yl)-N-(2-(4-fluorophenyl)propan-2-yl)pyrimidin-2-amine]: the IC50 at HDAC1 (read-out: Human HDAC1 IC50), at HDAC1 (setting [1]), on HDAC2, at HDAC3/NCOR2, at HDAC4 and on HDAC5 was over 30 µM each time. Moreover, the IC50 is 0.038 µM at HDAC6 (read-out: Human HDAC6 IC50); 0.038 µM at HDAC6 (setting [2]); over 30 µM at HDAC7; over 30 µM at HDAC8; over 30 µM on HDAC9; over 30 µM at HDAC10. For the same molecule, the IC50 at HDAC11 was over 30 µM.

For the molecule `Fc1cccc(F)c1C1(Nc2ncc(-c3nnc(C(F)F)o3)cn2)CC1` [Example 11, 5-(5-(difluoromethyl)-1,3,4-oxadiazol-2-yl)-N-(1-(2,6-difluorophenyl)cyclopropyl)pyrimidin-2-amine], the IC50 at HDAC1 (read-out: Human HDAC1 IC50) was over 100 µM; on HDAC1 (setting [1]), over 100 µM; at HDAC2, over 30 µM; at HDAC3/NCOR2 it was over 30 µM; on HDAC4, over 30 µM; on HDAC5 it was over 30 µM. Besides, the 50% inhibitory concentration (IC50) at HDAC6 (read-out: Human HDAC6 IC50) is 0.006 µM; on HDAC6 (setting [2]), 0.006 µM; at HDAC7, over 30 µM; at HDAC8, over 30 µM; on HDAC9 it was over 30 µM; at HDAC10 it was over 30 µM. Also, the IC50 on HDAC11 is over 30 µM.

For the molecule `Fc1ccc(C(CC(F)(F)F)Nc2ncc(-c3nnc(C(F)F)o3)cn2)cc1` (stereo not shown) [Example 13, 5-(5-(difluoromethyl)-1,3,4-oxadiazol-2-yl)-N-(3,3,3-trifluoro-1-(4-fluorophenyl)propyl) pyrimidin-2-amine], the IC50 on HDAC1 (read-out: Human HDAC1 IC50), at HDAC1 (setting [1]), on HDAC2, at HDAC3/NCOR2, on HDAC4 and on HDAC5 was over 30 µM each time. For the same molecule, the IC50 at HDAC6 (read-out: Human HDAC6 IC50) was 0.036 µM; at HDAC6 (setting [2]), 0.036 µM; at HDAC7, over 30 µM; on HDAC8, over 30 µM; at HDAC9, over 30 µM; on HDAC10, over 30 µM. Also, the IC50 on HDAC11 was over 30 µM.

As for `Fc1ccc(C2(Nc3ncc(-c4nnc(C(F)F)o4)cn3)CC2)c(Cl)c1` [Example 62, N-(1-(2-chloro-4-fluorophenyl)cyclopropyl)-5-(5-(difluoromethyl)-1,3,4-oxadiazol-2-yl)pyrimidin-2-amine], the IC50 at HDAC1 (read-out: Human HDAC1 IC50), on HDAC1 (setting [1]), at HDAC2, at HDAC3/NCOR2, on HDAC4 and on HDAC5 was over 30 µM in each case. For the same molecule, the IC50 at HDAC6 (read-out: Human HDAC6 IC50) was 0.008 µM; at HDAC6 (setting [2]) it was 0.008 µM; at HDAC7, over 30 µM; at HDAC8 it was over 30 µM; on HDAC9, over 30 µM; on HDAC10, over 30 µM. The IC50 on HDAC11 is over 30 µM.

As to `C[C@@H](Nc1ncc(-c2nnc(C(F)F)o2)cn1)c1ccc(F)cc1F` [Example 99-R, 5-[5-(difluoromethyl)-1,3,4-oxadiazol-2-yl]-N-[(1R)-1-(2,4-difluorophenyl)ethyl]pyrimidin-2-amine], the IC50 on HDAC1 (read-out: Human HDAC1 IC50), on HDAC1 (setting [1]), at HDAC2, on HDAC3/NCOR2, on HDAC4 and at HDAC5 was over 30 µM each time. The IC50 is 0.028 µM at HDAC6 (read-out: Human HDAC6 IC50); 0.028 µM at HDAC6 (setting [2]); over 30 µM on HDAC7; over 30 µM at HDAC8; over 30 µM on HDAC9; over 30 µM at HDAC10. In addition, the IC50 at HDAC11 is over 30 µM.
